From patent US9388198B2, “Heterocyclic amide derivatives as P2X7 receptor antagonists” (ACTELION PHARMACEUTICALS LTD, priority 2014, dated 2016)
pIC50: −log10 of the molar value.

Molecular target: human recombinant P2X7 receptor (Homo sapiens (Human), UniProt Q99572)
Assay: YO-PRO1 uptake assay in HEK cells stably expressing human P2X7
Assay type: cell-based
Details: HEK-293 cells expressing human recombinant P2X7; 250 μM ATP, 90 minutes; YO-PRO-1 fluorescence; read-out: IC50 (antagonistic activity with respect to the P2X7 receptor)
Description: Cell Line Generation and YO-PRO Assay Cell line generation was performed in general according to established molecular cloning protocols. Specifically, RNA was extracted from human whole blood using the Qiagen RNeasy kit (Qiagen, CH) according to the manufacturer's instructions. […] BC011913) was amplified with the following primers: [NT] and [NT] The amplified sequence was subsequently ligated into a pcDNA3.1 (+) NotI, NheI digested plasmid. Human embryonic kidney (HEK) cells (ATCC CRL-1573, Manassas, Va., USA) were transfected with the pcDNA3.1 (+). hP2X7 plasmid using lipofectamine 2000 (Invitrogen AG, CH) according to the manufacturer's instructions. Following a 24 h exposure to DNA, cells were trypsinized and re-seeded at low density in the presence of 250 μg Geneticin. Geneticin resistant cells were then selected during two consecutive rounds of cloning by serial limiting dilution with visual inspection. […] Specific cell clones were chosen based on RNA and protein expression. […] Cells were grown to confluency in adherent culture at 37° C. in a humidified 5% CO2 incubator (split 1⁄5 every 3-4 days with DMEM, 10% FCS, 1% Penicillin/Streptomycin, 250 μg/ml Geneticin). […] Medium was removed from cells and 50 μl of assay buffer containing 0.5 μM YO-[…] was added into the wells. Solutions of antagonist compounds were prepared by serial dilutions of a 10 mM DMSO solution of the antagonist into PBS using a BioMek (Beckman Coulter). Each concentration was performed in duplicate. […] The cells were incubated with the antagonists of the present invention together with ATP at a final concentration of 250 μM for 90 minutes. During this time period, four time points were taken. Each time point comprised the average of several measurements made within a few seconds. Fluorescence was measured in the FLIPR tetra (Molecular Devices) using the filters appropriate for YO-[…] fluorescence (excitation 485/20, emission 530/25). The FLIPR tetra was equipped with Molecular Devices Screen Works system control software to define and run experimental protocols. […] For IC50 measurements the maximum intensity is plotted against the concentration of compound to determine IC50 values.

Chain of human recombinant P2X7 receptor (Q99572 whole entry): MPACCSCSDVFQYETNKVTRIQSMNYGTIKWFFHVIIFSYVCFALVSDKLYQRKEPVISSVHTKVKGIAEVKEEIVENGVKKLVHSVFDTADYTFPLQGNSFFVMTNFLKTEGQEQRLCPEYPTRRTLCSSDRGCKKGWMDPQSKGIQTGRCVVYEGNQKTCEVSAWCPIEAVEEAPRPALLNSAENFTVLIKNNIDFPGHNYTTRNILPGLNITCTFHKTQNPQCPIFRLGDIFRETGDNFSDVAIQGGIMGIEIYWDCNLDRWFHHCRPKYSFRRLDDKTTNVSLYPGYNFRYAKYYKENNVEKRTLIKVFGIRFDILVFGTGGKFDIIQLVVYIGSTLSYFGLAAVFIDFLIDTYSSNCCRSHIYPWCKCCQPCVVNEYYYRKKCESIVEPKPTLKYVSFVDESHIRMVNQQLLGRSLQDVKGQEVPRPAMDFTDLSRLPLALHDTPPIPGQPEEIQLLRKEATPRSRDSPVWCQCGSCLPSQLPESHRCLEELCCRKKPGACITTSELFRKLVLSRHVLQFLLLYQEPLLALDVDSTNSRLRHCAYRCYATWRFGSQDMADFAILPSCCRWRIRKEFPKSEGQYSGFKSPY

Structure (SMILES): Cc1ncc(C(CNC(=O)C2CCc3ncsc32)N2CCC(F)(F)CC2)cn1 (centres unmarked) [Example 7, N-(2-(4,4-difluoropiperidin-1-yl)-2-(2-methylpyrimidin-5-yl)ethyl)-5,6-dihydro-4H-cyclopenta[d]thiazole-6-carboxamide]
- pIC50: 6.32

Structure (SMILES): O=C(N[C@H](CO)C1CCCCC1)C1CCCc2ncsc21 (stereo partly drawn) [Example 12, N-((S)-1-cyclohexyl-2-hydroxyethyl)-4,5,6,7-tetrahydrobenzo[d]thiazole-7-carboxamide]
- pIC50: 7.39

Structure (SMILES): O=C(N[C@H](CO)C1CCCCC1)C1CCCCc2ncsc21 (stereo partly drawn) [Example 16, N-((S)-1-cyclohexyl-2-hydroxyethyl)-5,6,7,8-tetrahydro-4H-cyclohepta[d]thiazole-8-carboxamide]
- pIC50: 6.46

Structure (SMILES): Cc1ncc(C(CNC(=O)C2CCc3ncsc32)N2CCOCC2)cn1 (centres unmarked) [Example 6, N-(2-(2-methylpyrimidin-5-yl)-2-morpholinoethyl)-5,6-dihydro-4H-cyclopenta[d]thiazole-6-carboxamide]
- pIC50: 5.86

Structure (SMILES): O=C(NCC1(c2ccc(Cl)nc2)CCC(F)(F)CC1)C1CCCc2ncsc21 (centres unmarked) [Example 14, N-((1-(6-chloropyridin-3-yl)-4,4-difluorocyclohexyl)methyl)-4,5,6,7-tetrahydrobenzo[d]thiazole-7-carboxamide]
- pIC50: 8.20

Structure (SMILES): Cc1ncc(C(CNC(=O)C2COc3ncsc32)N2CCC(F)(F)CC2)cn1 (centres unmarked) [Example 3, N-(2-(4,4-difluoropiperidin-1-yl)-2-(2-methylpyrimidin-5-yl)ethyl)-5,6-dihydrofuro[2,3-d]thiazole-6-carboxamide]
- pIC50: 5.69

Structure (SMILES): Cc1ncc(C(CNC(=O)C2CCOc3ncsc32)N2CCOCC2)cn1 (centres unmarked) [Example 9, N-(2-(2-methylpyrimidin-5-yl)-2-morpholinoethyl)-6,7-dihydro-5H-pyrano[2,3-d]thiazole-7-carboxamide]
- pIC50: 5.84

Structure (SMILES): O=C(NCC(c1ccc(Cl)nc1)N1CCC(F)(F)CC1)C1CCOc2ncsc21 (centres unmarked) [Example 10, N-(2-(6-chloropyridin-3-yl)-2-(4,4-difluoropiperidin-1-yl)ethyl)-6,7-dihydro-5H-pyrano[2,3-d]thiazole-7-carboxamide]
- pIC50: 7.13

Structure (SMILES): O=C(N[C@H](CO)C1CCCCC1)C1CCCCc2ncsc21 (stereo partly drawn) [Example 17, N-((S)-1-cyclohexyl-2-hydroxyethyl)-5,6,7,8-tetrahydro-4H-cyclohepta[d]thiazole-8-carboxamide]
- pIC50: 6.27

Structure (SMILES): O=C(NCC1(c2ccc(Cl)nc2)CCCCC1)C1COc2ncsc21 (centres unmarked) [Example 2, N-((1-(6-chloropyridin-3-yl)cyclohexyl)methyl)-5,6-dihydrofuro[2,3-d]thiazole-6-carboxamide]
- pIC50: 7.55

Structure (SMILES): O=C(NCC1(c2ccc(Cl)nc2)CCCCC1)C1CCCc2ncsc21 (centres unmarked) [Example 13, N-((1-(6-chloropyridin-3-yl)cyclohexyl)methyl)-4,5,6,7-tetrahydrobenzo[d]thiazole-7-carboxamide]
- pIC50: 8.47

Structure (SMILES): O=C(NC(CO)C1CCCCCC1)C1COc2ncsc21 (centres unmarked) [Example 1, N-(1-cycloheptyl-2-hydroxyethyl)-5,6-dihydrofuro[2,3-d]thiazole-6-carboxamide]
- pIC50: 6.09

Structure (SMILES): O=C(NCC(c1ccc(C(F)(F)F)nc1)N1CCOCC1)C1COc2ncsc21 (centres unmarked) [Example 4, N-(2-morpholino-2-(6-(trifluoromethyl)pyridin-3-yl)ethyl)-5,6-dihydrofuro[2,3-d]thiazole-6-carboxamide]
- pIC50: 6.48

Structure (SMILES): O=C(N[C@H](CO)C1CCCCC1)C1CCc2ncsc21 (stereo partly drawn) [Example 5, N-((S)-1-cyclohexyl-2-hydroxyethyl)-5,6-dihydro-4H-cyclopenta[d]thiazole-6-carboxamide]
- pIC50: 6.57

Structure (SMILES): O=C(NCC(c1cnc(C(F)(F)F)nc1)N1CCOCC1)C1CCCc2ncsc21 (centres unmarked) [Example 15, N-(2-morpholino-2-(2-(trifluoromethyl)pyrimidin-5-yl)ethyl)-4,5,6,7-tetrahydrobenzo[d]thiazole-7-carboxamide]
- pIC50: 7.48

Structure (SMILES): O=C(N[C@H](CO)C1CCCCC1)C1CCOc2ncsc21 (stereo partly drawn) [Example 8, N-((S)-1-cyclohexyl-2-hydroxyethyl)-6,7-dihydro-5H-pyrano[2,3-d]thiazole-7-carboxamide]
- pIC50: 6.47

Structure (SMILES): C[C@@H](NC(=O)C1CCCc2ncsc21)C1CCCCC1 (stereo partly drawn) [Example 11, N-((R)-1-cyclohexylethyl)-4,5,6,7-tetrahydrobenzo[d]thiazole-7-carboxamide]
- pIC50: 7.22
